These results are taken from PMC2873968, “Novel protein kinase D inhibitors cause potent arrest in prostate cancer cell growth and motility” (BMC Chemical Biology, 2010).

Experiment [1] concerns the target MET (Homo sapiens, UniProt P08581). The experiment in a line: Kinase profiling, single-dose in vitro kinase assay (Caliper Life Sciences). The conditions noted are these: read-out: Average % Inhibition MET.
Experiment [2] has as its system AMPK. Described as above. The settings on record: 10 μM.
For experiment [3], the target named is p70S6K (Homo sapiens, UniProt P23443). The description is as above. The settings on record: read-out: Average % Inhibition p70S6K.
The target of experiment [4] is CHK2 (Homo sapiens, UniProt O96017). Described as above. The settings on record: read-out: Average % Inhibition CHK2.
The target in experiment [5] is MARK1 (Homo sapiens, UniProt Q9P0L2). The experiment is described as above. The conditions noted are these: read-out: Average % Inhibition MARK1.
Chain of MARK1 (Q9P0L2 whole entry): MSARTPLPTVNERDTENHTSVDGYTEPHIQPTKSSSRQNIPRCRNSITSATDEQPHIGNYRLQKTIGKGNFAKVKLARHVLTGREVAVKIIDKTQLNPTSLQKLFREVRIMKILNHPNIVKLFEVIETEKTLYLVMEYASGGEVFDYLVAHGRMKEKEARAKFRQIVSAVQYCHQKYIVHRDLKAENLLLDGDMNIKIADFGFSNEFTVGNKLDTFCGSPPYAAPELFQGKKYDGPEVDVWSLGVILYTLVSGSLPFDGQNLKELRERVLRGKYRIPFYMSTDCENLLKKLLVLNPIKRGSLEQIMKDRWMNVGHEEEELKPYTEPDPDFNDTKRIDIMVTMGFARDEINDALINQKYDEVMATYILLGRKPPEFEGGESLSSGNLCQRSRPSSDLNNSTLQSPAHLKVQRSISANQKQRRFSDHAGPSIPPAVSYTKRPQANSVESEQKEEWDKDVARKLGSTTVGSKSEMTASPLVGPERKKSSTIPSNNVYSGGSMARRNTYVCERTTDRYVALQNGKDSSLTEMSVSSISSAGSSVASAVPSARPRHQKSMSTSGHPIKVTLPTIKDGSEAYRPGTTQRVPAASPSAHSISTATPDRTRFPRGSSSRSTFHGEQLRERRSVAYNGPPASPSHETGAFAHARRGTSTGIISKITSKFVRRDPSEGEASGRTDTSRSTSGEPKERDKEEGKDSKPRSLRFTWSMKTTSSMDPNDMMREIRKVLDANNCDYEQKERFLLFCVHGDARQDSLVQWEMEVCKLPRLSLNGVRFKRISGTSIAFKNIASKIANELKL
For experiment [6], the target named is SGK1 (Homo sapiens, UniProt O00141). The description is as above. The conditions noted are these: read-out: Average % Inhibition SGK1.
Experiment [7] addresses IBSR (Homo sapiens, UniProt P06213). Described as above. The settings on record: read-out: Average % Inhibition IBSR.
Experiment [8] concerns the target PDK1 (Homo sapiens, UniProt O15530). Described as above. The settings on record: read-out: Average % Inhibition PDK1.
In experiment [9] the target is JNK2 (Homo sapiens, UniProt P45984). Described as above. The settings on record: read-out: Average % Inhibition JNK2.
The target of experiment [10] is PKG1α (Homo sapiens, UniProt Q13976). The description is as above. The settings on record: read-out: Average % Inhibition PKG1α.
Experiment [11] addresses PKA (Homo sapiens, UniProt P17612). The description is as above. The conditions noted are these: read-out: Average % Inhibition PKA.
Experiment [12] deals with PIM2 (Homo sapiens, UniProt Q9P1W9). The experiment is described as above. The conditions noted are these: read-out: Average % Inhibition PIM2.
Experiment [13] concerns the target Ikkb (Homo sapiens, UniProt O14920). The experiment is described as above. The conditions noted are these: read-out: Average % Inhibition Ikkb.
Experiment [14] has as its system protein kinase B (AKT/PKB). More on the design: method as in PMID 18829454. The conditions noted are these: previously reported; cited from earlier work.
The target in experiment [15] is Erk2 (Homo sapiens, UniProt P28482). The experiment in a line: Kinase profiling, single-dose in vitro kinase assay (Caliper Life Sciences). The conditions noted are these: read-out: Average % Inhibition Erk2.
Experiment [16] concerns the target T1, PKD2 (Homo sapiens, UniProt Q9BZL6).
T1 sequence (Q9BZL6 1-878): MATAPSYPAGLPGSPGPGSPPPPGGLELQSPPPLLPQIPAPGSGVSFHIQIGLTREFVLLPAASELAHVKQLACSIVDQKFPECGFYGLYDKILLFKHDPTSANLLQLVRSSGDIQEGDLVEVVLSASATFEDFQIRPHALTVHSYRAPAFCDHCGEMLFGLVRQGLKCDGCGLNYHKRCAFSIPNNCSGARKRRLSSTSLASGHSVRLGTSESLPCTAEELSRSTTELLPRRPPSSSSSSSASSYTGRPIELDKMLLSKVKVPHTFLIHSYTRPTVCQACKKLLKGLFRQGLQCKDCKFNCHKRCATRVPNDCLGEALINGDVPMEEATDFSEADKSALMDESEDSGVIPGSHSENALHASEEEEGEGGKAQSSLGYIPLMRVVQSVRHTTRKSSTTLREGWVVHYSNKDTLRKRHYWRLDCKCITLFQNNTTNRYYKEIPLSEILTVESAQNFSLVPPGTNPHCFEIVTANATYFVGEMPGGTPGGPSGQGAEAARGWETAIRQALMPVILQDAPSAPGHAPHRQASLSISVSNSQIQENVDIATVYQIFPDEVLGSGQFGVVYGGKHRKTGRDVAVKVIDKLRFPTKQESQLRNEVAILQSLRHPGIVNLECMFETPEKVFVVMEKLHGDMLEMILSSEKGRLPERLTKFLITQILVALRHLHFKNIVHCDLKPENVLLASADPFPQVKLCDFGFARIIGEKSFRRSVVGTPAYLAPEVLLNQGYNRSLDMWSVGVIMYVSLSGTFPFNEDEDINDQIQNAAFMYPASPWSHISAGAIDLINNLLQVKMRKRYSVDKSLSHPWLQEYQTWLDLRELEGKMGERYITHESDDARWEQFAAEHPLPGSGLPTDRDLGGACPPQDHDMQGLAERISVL
The description is as above. The conditions noted are these: read-out: Average % Inhibition PKD2.

Experiment [17] deals with AurA (Homo sapiens, UniProt O14965). The description is as above. The conditions noted are these: read-out: Average % Inhibition AurA.
Chain of AurA (O14965 whole entry): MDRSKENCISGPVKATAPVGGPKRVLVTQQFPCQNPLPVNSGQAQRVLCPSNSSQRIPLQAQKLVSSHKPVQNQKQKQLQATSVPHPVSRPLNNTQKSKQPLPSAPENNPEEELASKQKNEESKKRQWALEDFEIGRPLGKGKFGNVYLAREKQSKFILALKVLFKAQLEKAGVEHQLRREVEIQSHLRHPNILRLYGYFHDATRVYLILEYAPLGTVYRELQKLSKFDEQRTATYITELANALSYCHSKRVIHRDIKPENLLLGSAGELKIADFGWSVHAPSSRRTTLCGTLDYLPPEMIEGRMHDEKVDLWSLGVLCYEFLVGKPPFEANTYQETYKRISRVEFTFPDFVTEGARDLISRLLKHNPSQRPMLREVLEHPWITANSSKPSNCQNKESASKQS
Experiment [18] concerns the target c-Raf (Homo sapiens, UniProt P04049). The description is as above. The settings on record: read-out: Average % Inhibition c-Raf.
Experiment [19] has as its target FLT3 (Homo sapiens, UniProt P36888). The description is as above. The settings on record: read-out: Average % Inhibition FLT3.
Experiment [20] concerns the target AKT2 (Homo sapiens, UniProt P31751). The experiment is described as above. The conditions noted are these: read-out: Average % Inhibition AKT2.
In experiment [21] the target is T2, PKCβI (Homo sapiens, UniProt P05771).
T2 construct: purchased Cell Signaling Technology
T2 sequence (P05771 whole entry): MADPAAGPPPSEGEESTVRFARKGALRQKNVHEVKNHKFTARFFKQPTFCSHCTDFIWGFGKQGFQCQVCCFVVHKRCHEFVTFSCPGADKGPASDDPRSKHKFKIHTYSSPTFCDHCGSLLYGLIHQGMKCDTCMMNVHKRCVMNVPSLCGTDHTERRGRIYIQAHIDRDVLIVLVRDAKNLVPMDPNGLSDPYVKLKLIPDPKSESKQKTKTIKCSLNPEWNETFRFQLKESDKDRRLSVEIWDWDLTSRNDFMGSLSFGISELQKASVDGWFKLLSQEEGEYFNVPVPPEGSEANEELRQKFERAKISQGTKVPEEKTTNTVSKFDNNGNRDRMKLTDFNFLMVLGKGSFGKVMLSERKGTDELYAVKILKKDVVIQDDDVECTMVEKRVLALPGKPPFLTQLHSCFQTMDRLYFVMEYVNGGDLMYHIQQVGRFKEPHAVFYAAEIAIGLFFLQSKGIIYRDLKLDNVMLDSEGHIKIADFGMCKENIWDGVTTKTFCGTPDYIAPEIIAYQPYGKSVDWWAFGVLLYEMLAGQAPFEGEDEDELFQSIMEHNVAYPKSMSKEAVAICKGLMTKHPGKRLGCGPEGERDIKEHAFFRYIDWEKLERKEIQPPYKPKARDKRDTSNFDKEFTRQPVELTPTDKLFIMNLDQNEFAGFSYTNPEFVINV
Also on record: method as in PMID 18829454. The conditions noted are these: previously reported; cited from earlier work.

For experiment [22], the target named is MSK1 (Homo sapiens, UniProt O75582). Description: Kinase profiling, single-dose in vitro kinase assay (Caliper Life Sciences). The settings on record: read-out: Average % Inhibition MSK1.

Chain of Ikkb (O14920 whole entry): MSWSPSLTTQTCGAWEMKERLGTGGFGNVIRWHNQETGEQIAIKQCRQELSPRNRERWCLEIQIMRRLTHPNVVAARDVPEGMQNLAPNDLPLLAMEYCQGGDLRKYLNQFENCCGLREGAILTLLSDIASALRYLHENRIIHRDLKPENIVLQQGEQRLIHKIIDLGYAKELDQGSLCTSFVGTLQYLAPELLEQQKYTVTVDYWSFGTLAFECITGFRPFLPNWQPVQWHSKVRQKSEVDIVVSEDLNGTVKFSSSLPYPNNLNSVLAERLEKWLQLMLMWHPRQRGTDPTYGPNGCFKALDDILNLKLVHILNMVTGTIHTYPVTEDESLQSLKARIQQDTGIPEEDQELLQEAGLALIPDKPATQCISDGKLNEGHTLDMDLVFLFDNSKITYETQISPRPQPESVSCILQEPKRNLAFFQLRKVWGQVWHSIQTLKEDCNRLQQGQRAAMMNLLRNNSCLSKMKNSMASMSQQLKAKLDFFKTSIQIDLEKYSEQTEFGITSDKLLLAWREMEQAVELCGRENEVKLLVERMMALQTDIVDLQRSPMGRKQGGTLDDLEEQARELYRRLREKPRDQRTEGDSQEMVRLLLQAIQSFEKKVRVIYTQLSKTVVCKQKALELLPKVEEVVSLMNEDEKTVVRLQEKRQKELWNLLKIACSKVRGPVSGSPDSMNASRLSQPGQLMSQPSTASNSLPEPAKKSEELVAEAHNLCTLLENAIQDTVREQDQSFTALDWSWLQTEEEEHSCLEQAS
Chain of IBSR (P06213 28-1382): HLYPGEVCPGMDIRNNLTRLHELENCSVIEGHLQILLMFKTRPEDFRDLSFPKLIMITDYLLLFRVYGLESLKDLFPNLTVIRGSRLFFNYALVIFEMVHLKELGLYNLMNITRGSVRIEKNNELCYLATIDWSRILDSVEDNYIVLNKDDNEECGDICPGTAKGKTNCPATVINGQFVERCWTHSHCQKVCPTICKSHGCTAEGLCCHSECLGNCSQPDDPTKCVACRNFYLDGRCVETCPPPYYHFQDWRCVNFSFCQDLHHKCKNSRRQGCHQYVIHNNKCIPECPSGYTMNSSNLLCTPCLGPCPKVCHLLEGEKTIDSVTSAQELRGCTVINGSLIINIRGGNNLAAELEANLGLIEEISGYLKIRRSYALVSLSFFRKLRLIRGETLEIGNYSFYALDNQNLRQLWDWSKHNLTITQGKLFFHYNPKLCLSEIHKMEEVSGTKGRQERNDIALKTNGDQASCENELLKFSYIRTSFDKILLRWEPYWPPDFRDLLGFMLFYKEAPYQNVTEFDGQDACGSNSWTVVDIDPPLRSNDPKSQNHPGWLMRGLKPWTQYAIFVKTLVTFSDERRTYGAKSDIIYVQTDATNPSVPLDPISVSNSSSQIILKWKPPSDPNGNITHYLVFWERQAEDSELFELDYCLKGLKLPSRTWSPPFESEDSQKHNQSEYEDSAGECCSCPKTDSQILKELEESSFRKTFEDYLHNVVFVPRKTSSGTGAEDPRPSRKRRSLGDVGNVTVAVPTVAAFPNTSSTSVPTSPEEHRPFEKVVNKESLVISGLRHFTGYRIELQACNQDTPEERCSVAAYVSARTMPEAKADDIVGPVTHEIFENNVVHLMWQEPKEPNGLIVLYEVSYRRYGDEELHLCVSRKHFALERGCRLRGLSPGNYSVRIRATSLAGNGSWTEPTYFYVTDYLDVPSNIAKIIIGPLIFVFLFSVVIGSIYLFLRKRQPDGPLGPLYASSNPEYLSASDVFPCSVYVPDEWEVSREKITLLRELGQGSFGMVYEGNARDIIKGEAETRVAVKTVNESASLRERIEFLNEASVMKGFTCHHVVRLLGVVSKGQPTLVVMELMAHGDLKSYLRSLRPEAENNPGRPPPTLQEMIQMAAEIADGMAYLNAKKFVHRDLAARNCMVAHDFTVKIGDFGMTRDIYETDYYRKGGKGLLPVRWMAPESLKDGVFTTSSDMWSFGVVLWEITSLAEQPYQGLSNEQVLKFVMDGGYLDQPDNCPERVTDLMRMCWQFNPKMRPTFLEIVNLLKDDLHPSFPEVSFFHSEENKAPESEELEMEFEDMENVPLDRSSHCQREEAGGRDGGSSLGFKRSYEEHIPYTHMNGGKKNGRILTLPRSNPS
Chain of AKT2 (P31751 whole entry): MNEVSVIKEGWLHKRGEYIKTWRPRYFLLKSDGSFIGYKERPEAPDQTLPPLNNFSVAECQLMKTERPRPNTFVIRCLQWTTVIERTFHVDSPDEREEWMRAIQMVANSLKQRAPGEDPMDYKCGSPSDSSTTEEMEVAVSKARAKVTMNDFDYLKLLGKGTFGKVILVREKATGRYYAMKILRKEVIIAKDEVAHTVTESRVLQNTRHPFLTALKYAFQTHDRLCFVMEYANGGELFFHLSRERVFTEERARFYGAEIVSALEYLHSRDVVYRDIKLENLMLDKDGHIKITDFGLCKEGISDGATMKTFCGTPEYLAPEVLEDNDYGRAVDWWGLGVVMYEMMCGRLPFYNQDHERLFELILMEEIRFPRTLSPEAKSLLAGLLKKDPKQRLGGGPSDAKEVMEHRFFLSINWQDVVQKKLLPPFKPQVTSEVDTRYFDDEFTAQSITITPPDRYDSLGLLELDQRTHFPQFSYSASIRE
Chain of PDK1 (O15530 whole entry): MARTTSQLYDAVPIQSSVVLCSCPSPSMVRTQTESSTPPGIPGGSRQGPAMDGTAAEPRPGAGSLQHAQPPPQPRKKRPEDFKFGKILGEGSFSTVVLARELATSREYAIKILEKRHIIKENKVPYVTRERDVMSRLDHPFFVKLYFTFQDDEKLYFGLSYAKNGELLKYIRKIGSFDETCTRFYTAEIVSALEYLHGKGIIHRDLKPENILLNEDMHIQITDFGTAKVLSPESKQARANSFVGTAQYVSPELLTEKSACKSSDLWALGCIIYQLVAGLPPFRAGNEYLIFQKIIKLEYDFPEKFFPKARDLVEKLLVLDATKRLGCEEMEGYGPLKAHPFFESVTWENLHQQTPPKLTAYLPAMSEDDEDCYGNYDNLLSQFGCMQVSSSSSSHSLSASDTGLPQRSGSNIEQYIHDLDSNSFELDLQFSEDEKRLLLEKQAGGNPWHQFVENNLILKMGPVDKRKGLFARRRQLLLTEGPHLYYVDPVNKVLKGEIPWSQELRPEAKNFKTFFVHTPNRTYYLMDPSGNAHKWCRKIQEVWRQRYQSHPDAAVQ

On to `O=C1NCCCc2c1oc1ccc(O)cc21` [CID755673, 7-Hydroxy-2,3,4,5-tetrahydro-[1]benzoxolo[2,3-c]azepin-1-one], for which the inhibition (as a rule, the drop in the measured response relative to a control, in per cent) at 10 µM was 18% in experiment [1]; 44% in experiment [3]; 4% in experiment [4]; 12% in experiment [5]; 9% in [6]; 3% in experiment [7]. Besides, the inhibition at 10 µM is 22% in [8]; 36% in [9]; 13% in experiment [10]; 6% in [11]; 6% in experiment [12]; 49% in experiment [13]. For the same compound, the inhibition at 10 µM was found to be 31% in experiment [15]; 95% in [16]; 7% in [17]; 2% in [18]; 14% in experiment [19]; 4% in [20]. Moreover, the inhibition at 10 µM in experiment [22] was determined as 7%. The “Average % Inhibition AMPK” value in experiment [2] is reported as 35%. Besides, the “inhibition of protein kinase B (AKT/PKB)” value in experiment [14] is reported as “did not inhibit”. The “inhibition of PKCβI” value in experiment [21] is on record as “did not inhibit”.
